Reference: ChEMBL document CHEMBL1201862, “PubChem BioAssay data set” (2004)
Calls of active or inactive are those of the source.

Columns and labels:
[1] = THP-1 cell cytotoxicity, dose response, cytotoxicity control for Vif-APOBEC3G degradation inhibitor project, THP-1 cells (AID 1117359); type: functional; settings: Human immunodeficiency virus 1, THP-1
[2] = biological target: T1, Caspase-6 (Homo sapiens, UniProt P55212); test: human caspase-6 inhibitors, dose response, biochemical, VEID-R110 fluorescence, cherry-pick (AID 720632)
T1 sequence (P55212 whole entry): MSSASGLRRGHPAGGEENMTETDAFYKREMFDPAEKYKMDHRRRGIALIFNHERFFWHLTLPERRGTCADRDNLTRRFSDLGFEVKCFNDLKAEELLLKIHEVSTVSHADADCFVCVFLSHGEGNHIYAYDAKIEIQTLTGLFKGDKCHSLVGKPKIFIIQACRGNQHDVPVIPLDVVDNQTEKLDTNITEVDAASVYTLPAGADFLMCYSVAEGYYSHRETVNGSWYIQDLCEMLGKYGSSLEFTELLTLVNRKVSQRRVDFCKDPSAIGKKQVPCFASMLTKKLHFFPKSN

[3] = biological target: T2, Leucine aminopeptidase (Plasmodium falciparum 3D7, UniProt Q8IL11); test: P. falciparum M17LAP inhibitors, primary screen, biochemical, fluorogenic H-Leu-NHMec substrate, 1536-well (AID 1619); type: functional
T2 sequence (Q8IL11 whole entry): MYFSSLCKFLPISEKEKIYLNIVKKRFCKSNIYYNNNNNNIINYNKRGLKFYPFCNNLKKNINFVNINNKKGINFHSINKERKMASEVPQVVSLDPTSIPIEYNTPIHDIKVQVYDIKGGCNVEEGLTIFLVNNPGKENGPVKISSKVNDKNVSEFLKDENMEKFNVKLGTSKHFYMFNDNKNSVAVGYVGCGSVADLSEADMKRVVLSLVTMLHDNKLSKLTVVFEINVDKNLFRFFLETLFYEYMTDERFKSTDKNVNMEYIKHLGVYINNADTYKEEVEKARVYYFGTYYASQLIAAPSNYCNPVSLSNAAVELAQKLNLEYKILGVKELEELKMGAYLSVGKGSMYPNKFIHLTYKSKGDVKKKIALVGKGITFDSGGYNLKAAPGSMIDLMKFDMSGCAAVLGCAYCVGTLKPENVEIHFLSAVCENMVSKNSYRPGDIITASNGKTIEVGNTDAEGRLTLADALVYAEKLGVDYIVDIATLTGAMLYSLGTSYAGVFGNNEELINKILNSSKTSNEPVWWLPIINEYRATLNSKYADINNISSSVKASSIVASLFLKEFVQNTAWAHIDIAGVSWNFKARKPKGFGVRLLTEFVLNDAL

[4] = growth suppression of beta-catenin-knockout colon cells, dose response, cell-based, HCT116, human colon tumor (AID 1045); type: functional;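 further: HCT116 colon tumor cells with beta catenin knocked out; cells exposed to compound for 60 hours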
[5] = system: Vero; test: host cell cytotoxicity of antiviral hits, dose response, cytotoxicity control for West Nile virus antiviral project, secondary assay (AID 1650); type: functional; settings: Chlorocebus sabaeus
[6] = growth suppression of PTEN-null colon cells, dose response, cell-based, HCT116 PTEN knockout (AID 1047); type: functional;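 further: HCT116 colon tumor cells with PTEN knocked out; cells exposed to compound for 60 hours before readout; potency for loss of cell viability measured by luminescence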
[7] = Luminescence Cell-Based Dose Response to Identify Activators of Luciferase Translation or Activity in H4-C Neuroglioblastoma Cells. [Related pubchem assays: 1829 (Project Summary), 1814 (Primary HTS)]; type: functional
[8] = Luminescence Cell-Based Dose Confirmation to Identify Activators of 5'UTR Stem-Loop Driven Alpha-Synuclein mRNA Translation in H4 Neuroglioblastoma Cells. [Related pubchem assays: 1829 (Project Summary), 1814 (Primary HTS)]; type: functional
[9] = Luminescence Cell-Based Dose Response to Identify Activators of 5'UTR Stem-Loop Driven Prion Protein mRNA Translation in H4-C Neuroglioblastoma Cells. [Related pubchem assays: 1829 (Project Summary), 1814 (Primary HTS)]; type: functional
[10] = system: H4; test: Luminescence Cell-Based Dose Response HTS to Identify Activators of 5'UTR Stem-Loop Driven Prion Protein mRNA Translation in H4 Neuroglioblastoma Cells. [Related pubchem assays: 1829 (Project Summary), 1814 (Primary HTS)]; type: functional; settings: Homo sapiens
[11] = Luminescence Cell-Based Dose Response HTS to Identify Activators of Luciferase Translation or Activity in H4 […] Cells. [Related pubchem assays: 1829 (Project Summary), 1814 (Primary HTS)]; type: functional
[12] = biological target: T3, Aminopeptidase N (Plasmodium falciparum FcB1/Columbia, UniProt O96935); test: P. falciparum M1AAP inhibitors, biochemical, fluorogenic H-Leu-NHMec substrate, 1536-well (AID 1445); parameters: species or system Plasmodium falciparum 3D7, 3D7
T3 sequence (O96935 whole entry): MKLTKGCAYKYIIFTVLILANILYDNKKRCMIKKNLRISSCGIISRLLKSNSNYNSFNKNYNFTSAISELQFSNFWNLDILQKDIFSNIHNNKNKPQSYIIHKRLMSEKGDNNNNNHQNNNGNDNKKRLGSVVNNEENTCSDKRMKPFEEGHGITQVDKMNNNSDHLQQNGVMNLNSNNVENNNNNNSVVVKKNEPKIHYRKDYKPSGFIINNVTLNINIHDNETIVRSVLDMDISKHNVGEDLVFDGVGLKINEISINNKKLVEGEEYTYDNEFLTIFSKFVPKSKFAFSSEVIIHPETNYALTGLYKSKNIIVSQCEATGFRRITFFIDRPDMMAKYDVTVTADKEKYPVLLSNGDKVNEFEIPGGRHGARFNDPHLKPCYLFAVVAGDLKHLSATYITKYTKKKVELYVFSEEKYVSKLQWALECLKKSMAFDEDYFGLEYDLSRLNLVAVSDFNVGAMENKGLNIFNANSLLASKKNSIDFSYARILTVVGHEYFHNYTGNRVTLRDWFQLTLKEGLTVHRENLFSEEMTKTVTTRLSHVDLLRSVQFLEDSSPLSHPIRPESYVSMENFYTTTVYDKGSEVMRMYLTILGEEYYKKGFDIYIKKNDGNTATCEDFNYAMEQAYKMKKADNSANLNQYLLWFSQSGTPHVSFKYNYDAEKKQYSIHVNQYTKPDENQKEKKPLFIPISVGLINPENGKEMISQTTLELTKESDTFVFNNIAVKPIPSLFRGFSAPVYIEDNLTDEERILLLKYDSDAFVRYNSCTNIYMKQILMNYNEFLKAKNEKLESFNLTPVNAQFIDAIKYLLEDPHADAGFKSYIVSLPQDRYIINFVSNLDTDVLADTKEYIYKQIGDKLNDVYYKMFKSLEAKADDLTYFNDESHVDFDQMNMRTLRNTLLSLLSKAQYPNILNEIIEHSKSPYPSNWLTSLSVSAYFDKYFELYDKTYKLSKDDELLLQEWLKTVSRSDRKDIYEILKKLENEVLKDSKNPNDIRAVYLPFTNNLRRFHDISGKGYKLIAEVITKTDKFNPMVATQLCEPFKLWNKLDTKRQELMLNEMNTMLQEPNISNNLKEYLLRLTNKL

[13] = biological target: T4, 1-phosphatidylinositol 4,5-bisphosphate phosphodiesterase beta-3 (Homo sapiens, UniProt Q01970); test: Fluorescence-based biochemical high throughput dose response assay to identify inhibitors of phospholipase C isozymes (PLC-B3).
T4 sequence (Q01970 whole entry): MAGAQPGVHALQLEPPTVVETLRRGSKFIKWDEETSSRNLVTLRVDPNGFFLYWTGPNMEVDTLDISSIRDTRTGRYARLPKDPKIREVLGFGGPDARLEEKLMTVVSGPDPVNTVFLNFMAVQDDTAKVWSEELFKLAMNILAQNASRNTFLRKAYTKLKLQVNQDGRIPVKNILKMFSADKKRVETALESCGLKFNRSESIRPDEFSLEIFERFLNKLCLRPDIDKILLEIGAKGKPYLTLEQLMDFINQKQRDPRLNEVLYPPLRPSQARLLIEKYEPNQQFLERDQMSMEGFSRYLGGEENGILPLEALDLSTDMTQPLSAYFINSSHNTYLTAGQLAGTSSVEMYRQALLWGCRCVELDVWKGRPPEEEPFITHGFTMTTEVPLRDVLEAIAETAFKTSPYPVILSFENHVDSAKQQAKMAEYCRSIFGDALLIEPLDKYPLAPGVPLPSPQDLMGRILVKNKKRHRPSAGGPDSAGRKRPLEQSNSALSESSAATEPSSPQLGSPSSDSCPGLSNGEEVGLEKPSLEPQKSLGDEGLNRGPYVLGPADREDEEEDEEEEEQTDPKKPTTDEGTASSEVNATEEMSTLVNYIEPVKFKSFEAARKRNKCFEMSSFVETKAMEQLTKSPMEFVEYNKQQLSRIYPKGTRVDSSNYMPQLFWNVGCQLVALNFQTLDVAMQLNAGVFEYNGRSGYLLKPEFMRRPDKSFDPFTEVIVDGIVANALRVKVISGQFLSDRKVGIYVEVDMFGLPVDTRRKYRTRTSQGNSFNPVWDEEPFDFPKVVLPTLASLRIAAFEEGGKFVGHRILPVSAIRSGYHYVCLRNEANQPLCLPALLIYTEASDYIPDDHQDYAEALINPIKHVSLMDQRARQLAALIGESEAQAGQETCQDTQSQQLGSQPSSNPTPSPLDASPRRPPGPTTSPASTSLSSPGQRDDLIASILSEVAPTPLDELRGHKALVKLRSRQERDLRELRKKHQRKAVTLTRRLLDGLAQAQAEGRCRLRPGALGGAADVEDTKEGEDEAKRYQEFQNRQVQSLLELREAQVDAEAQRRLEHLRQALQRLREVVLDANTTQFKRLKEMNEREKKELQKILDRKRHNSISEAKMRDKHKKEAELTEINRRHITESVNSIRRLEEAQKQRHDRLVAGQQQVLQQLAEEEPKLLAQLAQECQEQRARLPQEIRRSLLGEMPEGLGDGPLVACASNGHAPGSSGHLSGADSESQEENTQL

[14] = biological target: T5, 1-phosphatidylinositol 4,5-bisphosphate phosphodiesterase gamma-1 (Homo sapiens, UniProt P19174); test: Counterscreen for inhibitors of phospholipase C isozymes (PLC-B3): Fluorescence-based biochemical high throughput dose response assay to identify inhibitors of phospholipase C isozymes (PLC-gamma1).
T5 sequence (P19174 whole entry): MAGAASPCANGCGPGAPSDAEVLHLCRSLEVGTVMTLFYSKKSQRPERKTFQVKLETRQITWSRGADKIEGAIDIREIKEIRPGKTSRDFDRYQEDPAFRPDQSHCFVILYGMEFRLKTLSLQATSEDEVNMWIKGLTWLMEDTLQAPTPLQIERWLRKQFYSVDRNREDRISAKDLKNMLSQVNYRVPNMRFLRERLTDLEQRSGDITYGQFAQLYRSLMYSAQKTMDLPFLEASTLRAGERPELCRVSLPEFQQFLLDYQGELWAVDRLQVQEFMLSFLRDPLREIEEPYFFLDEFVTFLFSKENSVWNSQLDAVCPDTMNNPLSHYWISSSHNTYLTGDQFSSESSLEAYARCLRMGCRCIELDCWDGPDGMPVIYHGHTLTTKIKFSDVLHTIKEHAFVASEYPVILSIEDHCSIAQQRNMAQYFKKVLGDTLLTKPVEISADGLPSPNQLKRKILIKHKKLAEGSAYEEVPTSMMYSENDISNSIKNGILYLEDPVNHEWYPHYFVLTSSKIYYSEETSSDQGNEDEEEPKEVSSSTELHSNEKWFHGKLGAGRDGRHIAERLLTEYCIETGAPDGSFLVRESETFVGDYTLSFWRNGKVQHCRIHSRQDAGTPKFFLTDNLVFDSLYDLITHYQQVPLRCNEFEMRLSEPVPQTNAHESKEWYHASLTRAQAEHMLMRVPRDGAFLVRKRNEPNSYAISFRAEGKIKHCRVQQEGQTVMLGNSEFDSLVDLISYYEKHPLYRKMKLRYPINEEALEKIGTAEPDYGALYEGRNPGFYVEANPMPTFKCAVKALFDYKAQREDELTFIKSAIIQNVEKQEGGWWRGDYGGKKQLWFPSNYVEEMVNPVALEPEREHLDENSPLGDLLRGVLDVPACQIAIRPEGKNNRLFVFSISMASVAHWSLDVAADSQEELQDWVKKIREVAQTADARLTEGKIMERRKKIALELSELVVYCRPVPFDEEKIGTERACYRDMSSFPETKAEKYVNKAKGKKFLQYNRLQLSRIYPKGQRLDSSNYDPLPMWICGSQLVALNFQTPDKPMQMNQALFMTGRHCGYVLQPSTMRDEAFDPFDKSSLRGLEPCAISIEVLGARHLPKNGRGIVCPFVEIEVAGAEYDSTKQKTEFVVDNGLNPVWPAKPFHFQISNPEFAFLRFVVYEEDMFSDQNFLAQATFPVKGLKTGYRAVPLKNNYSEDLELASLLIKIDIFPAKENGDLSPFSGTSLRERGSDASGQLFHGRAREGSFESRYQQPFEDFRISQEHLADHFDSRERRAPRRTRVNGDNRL

[15] = NIH:OVCAR-3 ovarian cancer cell cytotoxicity, dose response, PAX8 inhibitor project, plate reader, dry powder samples (AID 743044); type: functional, cell-based
[16] = IOSE-T80 ovarian epithelial cell cytotoxicity, dose response, cytotoxicity control for PAX8 inhibitor project, plate reader, dry powder samples (AID 743045); type: functional, cell-based
[17] = inhibitors of PGC1a acetylation in cells, dose response, cell-based, cherry-picked samples (AID 720514); type: functional;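 further: potency may reflect raised or lowered acetylation signal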
[18] = IGROV1 ovarian cancer cell cytotoxicity, dose response, PAX8 inhibitor project, plate reader, dry powder samples (AID 743043); type: functional, cell-based; settings: IGROV-1

CCNS(=O)(=O)c1ccc(-c2ccc(-n3cnnn3)cc2)cc1
CC50 [1]: > 40 µM (active)

CCN(CCCNC(=O)C1CCCN(S(=O)(=O)CC)C1)c1cccc(C)c1 (centres undefined)
CC50 [1]: > 40 µM (active)

O=C(O)CCC(=O)Nc1sc2c(c1C(=O)Nc1ccccc1)CCCCC2
AC50 [2]: 45 µM (active) | IC50 [3]: 47 µM (active)

COc1cc(/C=C/C(=O)c2ccc(O)cc2)ccc1OCC#N
EC50 [4]: 1.93 µM (active) | CC50 [5]: 31.9 µM (active) | EC50 [6]: 2.34 µM (active)

CCn1c(=N)n(CC(=O)c2ccc(Cl)c(Cl)c2)c2ccccc21
EC50 [7]: 0.474 µM (active) | EC50 [8]: 1.18 µM (active) | CC50 [5]: 15.5 µM (active) | EC50 [9]: 0.771 µM (active) | EC50 [10]: > 120 µM (not active) | EC50 [11]: < 0.1 µM (active)

COc1ccc(/C=C2\SC(=S)NC2=O)cc1OS(=O)(=O)c1ccc(NC(C)=O)cc1
AC50 [2]: 17 µM (active) | IC50 [12]: 29.8 µM (active)

CC(C)(C)c1ccc(CNc2nc(-c3ccccn3)nnc2-c2ccccc2)cc1
IC50 [13]: > 122 µM (inactive) | IC50 [14]: > 122 µM (inactive)

COc1cccc(-c2ccc([C@@H]3[C@@H]4CN(Cc5cccc(F)c5)C[C@H]3N4)cc2)c1
AC50 [15]: 24.4 µM (active) | AC50 [16]: 36 µM (active) | AC50 [17]: 4.26 µM (active) | AC50 [18]: 34 µM (active)

O=S(=O)(CS(=O)(=O)c1ccccc1Br)c1ccccc1Br
IC50 [13]: > 122 µM (inactive) | IC50 [14]: 44.7 µM (inactive)

CC12CC[C@H]3[C@@H](CCC4(O)C[C@H](O)CCC34/C=N/NC(=O)c3ccccc3O)C1(O)CCC2C1=CC(=O)OC1 (some centres undefined)
CC50 [5]: 22.2 µM (active)
